ChEMBL document CHEMBL1121950, “Species- or isozyme-specific enzyme inhibitors. 9. Selective effects in inhibitions of rat pyruvate kinase isozymes by adenosine 5'-diphosphate derivatives” (J Med Chem, 1982)
Values joined by “and” are separate entries in the source; they are usually repeats but may differ in a detail not shown here. Equal entries are not always repeated.

Columns and labels:
Pyruvate kinase PKLR [1] = target: T1, Pyruvate kinase PKLR (Rattus norvegicus, UniProt P12928); experiment: Inhibition of rat liver pyruvate kinase (PK-L) at 7.2 mM
Pyruvate kinase PKM [2] = target: T2, Pyruvate kinase PKM (Rattus norvegicus, UniProt P11980); experiment: Inhibition of rat muscle pyruvate kinase (PK-M)
Pyruvate kinase PKLR [3] = target: T1, Pyruvate kinase PKLR; experiment: Inhibition of rat liver pyruvate kinase (PK-L) at 3.6 mM
Pyruvate kinase PKLR [4] = target: T1, Pyruvate kinase PKLR; experiment: Inhibition of rat kidney pyruvate kinase (PK-L)
Pyruvate kinase PKLR [5] = target: T1, Pyruvate kinase PKLR; experiment: Inhibition of rat liver pyruvate kinase (PK-L); (relative inhibitory potency)
Pyruvate kinase PKLR [6] = target: T1, Pyruvate kinase PKLR; experiment: Inhibitory constant for inhibition of pyruvate kinase obtained from rat liver (PK-L) was determined using ADP as competitive inhibitor
Pyruvate kinase PKM [7] = target: T2, Pyruvate kinase PKM; experiment: Inhibition of rat muscle pyruvate kinase (PK-M) at 6.7 mM
Pyruvate kinase PKLR [8] = target: T1, Pyruvate kinase PKLR; experiment: Inhibition of rat liver pyruvate kinase (PK-L) at 10.7 mM
Pyruvate kinase PKM [9] = target: T2, Pyruvate kinase PKM; experiment: Inhibition of rat muscle pyruvate kinase (PK-M) at 10 mM

T2 sequence (P11980 whole entry): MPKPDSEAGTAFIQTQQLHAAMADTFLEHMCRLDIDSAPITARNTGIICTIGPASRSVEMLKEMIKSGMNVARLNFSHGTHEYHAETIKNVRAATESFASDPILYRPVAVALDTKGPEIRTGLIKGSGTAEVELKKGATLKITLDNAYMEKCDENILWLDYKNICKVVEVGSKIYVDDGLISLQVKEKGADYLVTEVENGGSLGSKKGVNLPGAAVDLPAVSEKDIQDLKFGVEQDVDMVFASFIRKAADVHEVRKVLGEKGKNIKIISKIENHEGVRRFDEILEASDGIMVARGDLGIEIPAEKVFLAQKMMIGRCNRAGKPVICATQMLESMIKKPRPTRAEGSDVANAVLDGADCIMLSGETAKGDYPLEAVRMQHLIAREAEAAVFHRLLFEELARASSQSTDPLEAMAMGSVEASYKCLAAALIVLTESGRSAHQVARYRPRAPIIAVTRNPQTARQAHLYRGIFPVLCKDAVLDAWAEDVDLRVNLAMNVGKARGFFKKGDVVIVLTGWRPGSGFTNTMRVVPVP
T1 sequence (P12928 whole entry): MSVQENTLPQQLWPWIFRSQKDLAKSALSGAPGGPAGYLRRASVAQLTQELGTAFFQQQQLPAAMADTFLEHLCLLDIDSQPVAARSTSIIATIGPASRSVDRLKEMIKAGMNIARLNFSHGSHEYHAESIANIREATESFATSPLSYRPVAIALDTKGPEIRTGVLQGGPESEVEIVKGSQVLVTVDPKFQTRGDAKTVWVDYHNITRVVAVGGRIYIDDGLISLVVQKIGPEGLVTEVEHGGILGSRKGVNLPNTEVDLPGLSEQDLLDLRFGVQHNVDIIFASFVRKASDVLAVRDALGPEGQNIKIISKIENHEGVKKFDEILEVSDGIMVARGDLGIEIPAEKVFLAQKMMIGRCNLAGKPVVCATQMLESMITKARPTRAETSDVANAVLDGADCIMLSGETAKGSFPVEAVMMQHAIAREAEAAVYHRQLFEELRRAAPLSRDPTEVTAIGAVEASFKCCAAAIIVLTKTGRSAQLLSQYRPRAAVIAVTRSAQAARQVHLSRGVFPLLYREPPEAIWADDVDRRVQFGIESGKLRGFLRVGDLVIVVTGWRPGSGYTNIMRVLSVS

| Ki (Pyruvate kinase PKM [2]) | Ki (Pyruvate kinase PKLR [6]) | also measured | Compound |
| --- | --- | --- | --- |
| 1.6 mM | – | Ki (Pyruvate kinase PKLR [1]): 2.2 mM; Ki (Pyruvate kinase PKLR [3]): 4.6 mM | CC1O[C@@H]2[C@H](O1)[C@@H](COP(=O)(O)OP(=O)(O)O)O[C@H]2n1cnc2c(N)ncnc21 (some centres not stated) |
| 0.9 mM | – | Ki (Pyruvate kinase PKLR [4]): 1.6 mM; Ki (Pyruvate kinase PKLR [5]): 3.8 mM | CCCNc1nc2c(N)ncnc2n1C1O[C@H](COP(=O)(O)OP(=O)(O)O)[C@@H](O)[C@H]1O (some centres not stated) |
| 9.3 mM | 32 mM | – | CO[C@H]1[C@@H](O)[C@H](n2cnc3c(N)ncnc32)O[C@@H]1COP(=O)(O)OP(=O)(O)O |
| 0.5 mM and 0.87 mM | 2.2 mM and 3.9 mM | – | CCNc1nc2c(N)ncnc2n1C1O[C@H](COP(=O)(O)OP(=O)(O)O)[C@@H](O)[C@H]1O (some centres not stated) |
| 3.7 mM | 8.4 mM | – | CCSc1nc2c(N)ncnc2n1C1O[C@H](COP(=O)(O)OP(=O)(O)O)[C@@H](O)[C@H]1O (some centres not stated) |
| – | – | Ki (Pyruvate kinase PKM [7]): 7 mM; Ki (Pyruvate kinase PKLR [8]): 5.4 mM; Ki (Pyruvate kinase PKM [9]): 4.5 mM | C[C@@H](OP(=O)(O)OP(=O)(O)O)[C@H]1OC(n2cnc3c(N)ncnc32)[C@H](O)[C@@H]1O (some centres not stated) |
| 4.3 mM | 7.5 mM | – | CSc1nc2c(N)ncnc2n1C1O[C@H](COP(=O)(O)OP(=O)(O)O)[C@@H](O)[C@H]1O (some centres not stated) |
